Test results reported in patent publication US4414388A, “1-Oxo-1H-thiazolo[3,2-a]pyrimidine-2-carboxamides” (Pfizer Inc., priority 1981, dated 1983).

What was measured:
urinary volume output = assay: diuretic activity; assay type: in vivo; conditions: oral
Experimental: When given orally, it caused a dose-related increase in urinary volume output at doses in the range 0.3 to 5 mg/kg. […] These findings indicate that the dose-response range for diuretic activity is considerably higher than that for antiulcer effects and just below that for antiallergy effects (1 to 10 mg/kg).

[1] = stability (solid state, in admixture and in solution); assay type: physicochemical; conditions: pure solid state, with standard pharmaceutical diluents

## O=C(Nc1nnn[nH]1)c1cnc2sc3c(n2c1=O)CCCC3 [compound III, N-(5-tetrazolyl)-1-oxo-1H-cyclohexenothiazolo[3,2-a]pyrimidine-2-carboxamide]
Urinary volume output
  sodium and potassium excretion: an increase in sodium and potassium excretion was observed
  urinary concentrations of sodium and potassium ions: unchanged
Urinary volume output; 0.3 to 5 mg/kg
  maximum effect on urinary volume output: twofold increase in volume output
[1]
  stability: exceptionally good stability
[1]; listed as formula III
  stability: highly stable
